Laboratory results reported in patent US20070009956A1 (Council of Scientific and Industrial Research, priority 2003, published 2007).
Where a chain is given by its changes, count along the chain named. “Also recorded” adds a separate entry of the source. Where a name gives a salt, the structure may show the parent alone.

Experiments:
α-crystallin [1] = molecular target: T1, α-crystallin (Bos taurus, UniProt P02470+P02510); test: Circular dichroism spectra; set-up: species or system calf
T1 construct: α-Crystallin was purified from calf eye lenses previously described (24); from tissue; host or cells: calf eye lenses
T1 sequence (P02470 1-173): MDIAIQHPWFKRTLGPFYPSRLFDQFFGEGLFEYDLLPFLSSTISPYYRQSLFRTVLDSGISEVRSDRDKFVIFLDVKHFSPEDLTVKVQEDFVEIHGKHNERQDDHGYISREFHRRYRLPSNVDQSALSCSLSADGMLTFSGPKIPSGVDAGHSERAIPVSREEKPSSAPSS
T1 sequence (P02510 1-175): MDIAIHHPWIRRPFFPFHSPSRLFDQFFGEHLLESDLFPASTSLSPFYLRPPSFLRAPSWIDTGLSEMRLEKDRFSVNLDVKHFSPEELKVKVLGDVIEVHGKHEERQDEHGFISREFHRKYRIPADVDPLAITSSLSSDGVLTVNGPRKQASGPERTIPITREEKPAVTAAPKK
Protocol: Circular dichroism spectra were recorded using a Jasco J-715 Spectropolarimeter. All spectra are the average of 4 accumulations.

α-crystallin [2] = molecular target: T1, α-crystallin; test: ANS binding fluorescence; set-up: species or system calf; conditions: 37° C., 100 mM Arg.HCl
Protocol: To study the binding of the hydrophobic probe, ANS, to α-crystallin, 12 uL of 10 mM methanolic solution of ANS was added to 1.2 ml of a 0.5 mg/ml solution of α-crystallin in Buffer A alone or in the buffer containing the required concentrations of Arg.HCl. The samples were excited at 365 nm and emission spectra recorded from 400-600 nm at 37° C. […] All spectra were corrected for the respective blanks. Spectra were recorded in the corrected spectrum mode.

α-crystallin [3] = molecular target: T1, α-crystallin; test: Thermally induced aggregation of ξ-crystallin at 43° C., chaperone activity of α-crystallin; format: biochemical, calf; conditions: 1:4 (w/w) α- to ξ-crystallin, preincubation with 100 mM Arg.HCl, 53% without
Protocol: Chaperone activity measurement of α-crystallin towards the thermal aggregation of ε-crystallin was performed as described in our earlier study (25). Buffer A either in the absence or in the presence of α-crystallin (0.025 mg/ml) and required concentrations of Arg.HCl was incubated at 43° C. for 3 min in the thermostated cuvette holder of the fluorescence spectrophotometer. ε-Crystallin was then added to a final concentration of 0.1 mg/mL The extent of aggregation was monitored as a function of time by measring the scalr of 465 nm light as descnbed above, […]

[4] = molecular target: T2, recombinant human αA-crystallin (Homo sapiens, UniProt P02489); test: DTT-induced aggregation of insulin, chaperone-like activity of αA-crystallin; format: biochemical; conditions: 37° C., 1:2 (w/w) to insulin
T2 construct: made in house; host or cells: Escherichia coli
T2 sequence (P02489 1-173): T1 sequence (P02470 1-173) with I3V, A4T, E91D, S142C, P147Q, S148T, V150L, G153T, S155A, S168T
Protocol: (§1) All chaperone assays were carried out in 10 mM phosphate buffer. pH 7.4, containing 100 mM NaCl (Buffer A). […] Insulin (0.2 mg/ml) was then added and reduction of insulin was initiated by adding 20 ρL of 1 M DTT to 1.2 ml of the sample. The extent of aggregation of insulin was measured as a function of time by monitoring 90° scattering at 465 nm using a Hitachi F-4000 fluorescence spectrophotometer. The excitation and emission band passes were set at 3 nm.

R116C αA-crystallin = molecular target: T3, R116C αA-crystallin (Homo sapiens, UniProt P02489, R116C); format: biochemical; conditions: 500 mM, data not shown
T3 sequence (P02489 1-173 R116C): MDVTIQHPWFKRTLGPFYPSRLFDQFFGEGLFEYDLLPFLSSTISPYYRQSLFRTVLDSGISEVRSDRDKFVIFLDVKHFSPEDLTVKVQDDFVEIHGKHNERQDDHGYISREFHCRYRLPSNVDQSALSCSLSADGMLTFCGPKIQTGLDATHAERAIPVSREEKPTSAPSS

[5] = molecular target: T4, recombinant human αB-crystallin (Homo sapiens, UniProt P02511); test: DTT-induced aggregation of insulin, chaperone-like activity of αB-crystallin; format: biochemical; conditions: 37° C., 1:4 (w/w) to insulin
T4 construct: made in house; host or cells: Escherichia coli
T4 sequence (P02511 1-175): T1 sequence (P02510 1-175) with A40T, I61F, A132T, A152V
Protocol: as §1

[6] = molecular target: T5, calf eye lens α-crystallin (Bos taurus, UniProt P02470+P02510); test: DTT-induced aggregation of insulin, chaperone-like activity of α-crystallin; conditions: for protection offered by α-crystallin: 25° C., α-crystallin to insulin 1:1 (w/w); for effect on the chaperone-like activity of α-crystallin: α-crystallin 0.1 mg/ml, insulin 0.2 mg/ml; for percent protection offered by α-crystallin: 36% in the absence of Lys.HCl
T5 sequence (P02470 1-173): T1 sequence (P02470 1-173)
T5 sequence (P02510 1-175): T1 sequence (P02510 1-175)
Protocol: as §1

insulin = test: DTT-induced aggregation of insulin without α-crystallin; format: biochemical; conditions: 37° C., no α-crystallin
Protocol: as §1

α-crystallin [7] = molecular target: T1, α-crystallin; test: Intrinsic tryptophan fluorescence; set-up: species or system calf; conditions: 37° C., in the presence of Arg.HCl
Protocol: Fluorescence spectra were recorded using a Hitachi F-4000 Fluorescence Spectrophotometerequipped with a thermostated cuvette holder. All the studies were performed at 37° C. All spectra were recorded in the corrected spectrum mode. The nirinsic tryptophan fluorescence spectra of α-crystllin (0.2 mg/ml) in Buffer A alone or in the buffer containing the required concentrations of Arg.HCl were recorded by exciting the sample at 295 nm with the excitation and emission band passes set at 3 nm.

α-crystallin [8] = molecular target: T1, α-crystallin; test: Glycerol gradient sedimentation; set-up: species or system calf
Protocol: Glycerol gradient centrifugation was carried out essentially as described by Lambert et al. (43). α-Crystallin, α-A- or α-B-crystallin (2 mg/ml) was incubated in 50 mM Tris HCl buffer (pH 7.4) containing 100 mM NaCl, 1 mM EDTA alone or in the presence of 300 mM Arg.HCl for 2 hours at 37° C. The samples (0.5 ml) were loaded on top of a 12 ml linear grddient of glycerol (10-40%) made in 50 mM Tris-HCl buffer, pH 7.4, containing 100 mM NaCl and 1 mM EDTA. Arg.HCl-treated α-crystllin samples were run in the gradient also containing 300 mM Arg.HCl. The tubes were centriflged for 18 hours at 30000 rpm in a Beckman SW41 rotor at 4° C. Fractions (0.3 ml) were withdrawn from the top using a Haake-Buchler Auto Densi-Flowt HC gradient former/remover and optical density at 280 nm of the fractions were measured using a Shimadzu W-1601 spectrophotometer. To estimate the molecular masses of the α-crystallin samples, proteins with defined molecular masses such as thyroglobulin (669 kDa), catalase (240 kDa) and aldolase (158 kDa) were used.

R120G αB-crystallin = molecular target: T6, R120G αB-crystallin (Homo sapiens, UniProt P02511, R120G); format: biochemical; conditions: 37° C., 0.5:1 ratio to insulin, 300 mM Arg.HCl; negative protection without
T6 sequence (P02511 1-175 R120G): T1 sequence (P02510 1-175) with A40T, I61F, R120G, A132T, A152V
Protocol: as §1

α-crystallin [9] = molecular target: T7, α-crystallin (Homo sapiens, UniProt P02489+P02511); conditions: 0.8-1.0 M Gdn.HCl; cited from earlier work
T7 sequence (P02489 1-173): T3 sequence (P02489 1-173 R116C) with C116R
T7 sequence (P02511 1-175): T1 sequence (P02510 1-175) with A40T, I61F, A132T, A152V

Hsp 16.3 = Hsp 16.3 (Mycobacterium tuberculosis, UniProt P9WMK1); conditions: Gdn.HCl-induced perturbation of structure; cited from earlier work
Chain of Hsp 16.3 (P9WMK1 whole entry): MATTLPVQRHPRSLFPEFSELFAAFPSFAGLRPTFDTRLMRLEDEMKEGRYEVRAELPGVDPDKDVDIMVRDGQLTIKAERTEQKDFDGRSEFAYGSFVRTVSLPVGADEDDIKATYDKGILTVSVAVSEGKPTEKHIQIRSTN

diabetic rats = conditions: rat, in vivo; cited from earlier work
Shumiya cataract rats = conditions: fed orally; cited from earlier work

Cl.N=C(N)NCCCC(N)C(=O)O (racemic) [DL-Arg.HCl, DLarginine hydrochloride]
far-UV CD spectra, secondary structure of α-crystallin (α-crystallin [1]; 37° C., DL-Arg.HCl): is not altered

Cl.N=C(N)NCCC[C@H](N)C(=O)O [Arg.HCl, Arginine hydrochloride]
increase in the fluorescence intensity of ANS at the emission maximum (α-crystallin [2]): ~38% | protective ability of α-crystallin against aggregation of ξ-crystallin (α-crystallin [3]): ~81% | effect on the chaperone-like activity of αA-crystallin [4]: enhanced the activity | effect on the activity of R116C αA-crystallin (R116C αA-crystallin): did not enhance | effect on the chaperone-like activity of αB-crystallin [5]: enhanced the activity | protection offered by α-crystallin ([6]; 100 mM Arg.HCl, approximately 13% without): 28% | protection offered by α-crystallin ([6]; 300 mM Arg.HCl): almost completely prevented | prevention of aggregation of insulin by α-crystallin ([6]; 37° C., 1:2 (w/w) α-crystallin:insulin, 200 mM Arg.HCl, ~36% without additive): completely | effect on the chaperone-like activity of α-crystallin ([6]; 37° C.): comparable | near-UV CD spectra of α-crystallin (α-crystallin [1]; 37° C., 100, 200, 300 mM Arg.HCl, region 270-290 nm): subtle conformational changes at the tertiary structural level | aggregation of insulin, additive alone (insulin): significantly increased aggregation | intrinsic tryptophan fluorescence spectrum of α-crystallin (α-crystallin [7]): did not change considerably | half-width of the sedimentation profile of α-crystallin (α-crystallin [8]; 300 mM Arg.HCl, 8.75 in the absence): 6.25 x-axis units | molecular mass of α-crystallin (α-crystallin [8]; 300 mM Arg.HCl, ~700 kDa in the absence): ~360 kDa | extent of protection by R120G αB-crystallin (R120G αB-crystallin): ~75%

N=C(N)N [Gdn.HCl, guanidine hydrochloride]
chaperone-like activity of α-crystallin (α-crystallin [9]): enhancement in its chaperone-like activity | effect on the chaperone-like activity of α-crystallin ([6]; 37° C., hydrochloride): comparable | chaperone-like activity of Hsp 16.3 (Hsp 16.3): enhanced

Cl.NCCCC[C@H](N)C(=O)O [Lys.HCl, Lysine hydrochloride]
percent protection offered by α-crystallin ([6]; 37° C., 100 mM Lys.HCl): 17% | percent protection offered by α-crystallin ([6]; 37° C., 300 mM Lys.HCl): about 8% | effect on the chaperone-like activity of α-crystallin ([6]; 37° C., hydrochloride): did not enhance; also recorded: decreased the activity | near-UV CD spectrum of α-crystallin in the presence of Lys.HCl (α-crystallin [1]; data not shown): change in the near-UV CD spectrum | size of α-crystallin in the presence of Lys.HCl (α-crystallin [8]; data not shown): change in the near-UV CD spectrum and size

N=C(N)NN [aminoguanidine]
cataract formation (diabetic rats): inhibit cataract formation | opacification of the lens (Shumiya cataract rats): inhibited the opacification of the lens
